Experimental data published in patent publication US3959468A, “Antibiotic equisetin and method of production” (The United States of America as represented by the …, priority 1974, dated 1976).
In brackets after ≈: the same amount, converted by molar mass. Where two headings read alike, the source gives them in different places. One block for each molecule: values may come before it.

Key:
M. smegmatis = test: Minimum inhibitory concentration, agar streak test on TGY agar (M. smegmatis); assay type: cell-based; settings: Mycolicibacterium smegmatis, NRRLB612, NRRL B-612, 37° C., 24 and 48 hr., read-out: Antimicrobial agent MIC
Method: (§1) Minimum inhibitory concentrations for microorganisms. The F. equiseti NRRL 5537 antibiotic was diluted in ethanol. Streptomycin sulfate and isoniazid were diluted in water. Amounts up to 1 ml. were added to TGY agar to provide the desired double dilution test concentrations. Minimum inhibitory concentrations of the antimicrobial agents were determined by streaking a loopful of standardized suspensions of 24- to 48-hr. cultures of selected microorganisms onto the surface of 20 ml. of the modified TGY agar in a standard petri dish. Microorganisms were cultured on TGY agar slants and diluted with TGY broth to yield a transmittance of about 90% at 600 nm. in a Spectronic-20 spectrophotometer. All cultures grew on control plates containing 1 ml. ethanol per 100 ml. TGY agar. Bacteria were incubated at 37° C. and the fungi at room temperature.

Staphylococcus aureus = test: Minimum inhibitory concentration, agar streak test on TGY agar (S. aureus); assay type: cell-based
Method: as §1

Neisseria perflava = test: Minimum inhibitory concentration, agar streak test on TGY agar (N. perflava); assay type: cell-based
Method: as §1

Bacillus subtilis = test: Minimum inhibitory concentration, agar streak test on TGY agar (B. subtilis); assay type: cell-based
Method: as §1

M. rhodochrus = test: Minimum inhibitory concentration, agar streak test on TGY agar (M. rhodochrus); assay type: cell-based; settings: NRRL B-2141, 37° C., 24 and 48 hr., read-out: Antimicrobial agent MIC
Method: as §1

Mycobacterium phlei = test: Minimum inhibitory concentration, agar streak test on TGY agar (M. phlei); assay type: cell-based; settings: Mycolicibacterium phlei, TGY agar, 37° C., 24 and 48 hr., read-out: Antimicrobial agent MIC
Method: as §1

bacteria = settings: cited from earlier work
[1] = NRRLB543, NRRL B-543, TGY agar, 37° C., 24 and 48 hr., read-out: Antimicrobial agent MIC

Molecule: [H]/N=C(/N)N[C@H]1[C@H](O)[C@@H](O)[C@H](O[C@@H]2O[C@@H](C)[C@](O)(C=O)[C@H]2O[C@@H]2O[C@@H](CO)[C@H](O)[C@@H](O)[C@@H]2NC)[C@@H](N/C(N)=N\[H])[C@@H]1O [Streptomycin]
MIC (M. smegmatis): 2 µg/mL (≈ 3.44 µM)
MIC (Staphylococcus aureus; NRRLB120, NRRL B-120, TGY agar, 37° C., 24 and 48 hr., read-out: Antimicrobial agent MIC): 2 µg/mL (≈ 3.44 µM)
MIC (Staphylococcus aureus; NRRLB124, NRRL B-124, TGY agar, 37° C., 24 and 48 hr., read-out: Antimicrobial agent MIC): 4 µg/mL (≈ 6.88 µM)
MIC (Staphylococcus aureus; NRRLB313, NRRL B-313, TGY agar, 37° C., 24 and 48 hr., read-out: Antimicrobial agent MIC): 2 µg/mL (≈ 3.44 µM)
MIC (Staphylococcus aureus; NRRLB678, NRRL B-678, TGY agar, 37° C., 24 and 48 hr., read-out: Antimicrobial agent MIC): 8 µg/mL (≈ 13.8 µM)
MIC (Staphylococcus aureus; NRRLB1317, NRRL B-1317, TGY agar, 37° C., 24 and 48 hr., read-out: Antimicrobial agent MIC): 4 µg/mL (≈ 6.88 µM)
MIC (Staphylococcus aureus; NRRLB1318, NRRL B-1318, TGY agar, 37° C., 24 and 48 hr., read-out: Antimicrobial agent MIC): 8 µg/mL (≈ 13.8 µM)
MIC (Staphylococcus aureus; NRRLB2746, NRRL B-2746, TGY agar, 37° C., 24 and 48 hr., read-out: Antimicrobial agent MIC): 2 µg/mL (≈ 3.44 µM)
MIC (Neisseria perflava; NRRLB1458, NRRL B-1458, TGY agar, 37° C., 24 and 48 hr., read-out: Antimicrobial agent MIC): 2 µg/mL (≈ 3.44 µM)
MIC (Neisseria perflava; NRRLB1788, NRRL B-1788, TGY agar, 37° C., 24 and 48 hr., read-out: Antimicrobial agent MIC): 2 µg/mL (≈ 3.44 µM)
MIC (Neisseria perflava; NRRLB1789, NRRL B-1789, TGY agar, 37° C., 24 and 48 hr., read-out: Antimicrobial agent MIC): 2 µg/mL (≈ 3.44 µM)
MIC (Neisseria perflava; NRRLB1790, NRRL B-1790, TGY agar, 37° C., 24 and 48 hr., read-out: Antimicrobial agent MIC): 2 µg/mL (≈ 3.44 µM)
MIC (Neisseria perflava; NRRLB1791, NRRL B-1791, TGY agar, 37° C., 24 and 48 hr., read-out: Antimicrobial agent MIC): 4 µg/mL (≈ 6.88 µM)
MIC (Bacillus subtilis; [1]): 4 µg/mL (≈ 6.88 µM)
MIC (Bacillus subtilis; NRRLB558, NRRL B-558, TGY agar, 37° C., 24 and 48 hr., read-out: Antimicrobial agent MIC): 8 µg/mL (≈ 13.8 µM)
MIC (Bacillus subtilis; NRRLB644, NRRL B-644, TGY agar, 37° C., 24 and 48 hr., read-out: Antimicrobial agent MIC): 2 µg/mL (≈ 3.44 µM)
MIC (Bacillus subtilis; NRRLB765, NRRL B-765, TGY agar, 37° C., 24 and 48 hr., read-out: Antimicrobial agent MIC): 2 µg/mL (≈ 3.44 µM)
MIC (Bacillus subtilis; NRRLB972, NRRL B-972, TGY agar, 37° C., 24 and 48 hr., read-out: Antimicrobial agent MIC): 8 µg/mL (≈ 13.8 µM)
MIC (Bacillus subtilis; NRRLB1650, NRRL B-1650, TGY agar, 37° C., 24 and 48 hr., read-out: Antimicrobial agent MIC): 8 µg/mL (≈ 13.8 µM)
MIC (Bacillus subtilis; NRRLB3284, NRRL B-3284, TGY agar, 37° C., 24 and 48 hr., read-out: Antimicrobial agent MIC): 4 µg/mL (≈ 6.88 µM)
MIC (M. rhodochrus): 2 µg/mL (≈ 3.44 µM)
MIC (Mycobacterium phlei; NRRLB609, NRRL B-609): 2 µg/mL (≈ 3.44 µM)
MIC (Mycobacterium phlei; NRRLB610, NRRL B-610): 2 µg/mL (≈ 3.44 µM)
MIC (Mycobacterium phlei; NRRLB4051, NRRL B-4051): 2 µg/mL (≈ 3.44 µM)

Molecule: fusariogenin
antibacterial properties (bacteria): either lack or only exhibit weak antibacterial properties

MIC (M. smegmatis): 4 µg/mL (≈ 29.2 µM)
MIC (Staphylococcus aureus; S. aureus strains, Table 1 footnote 1 (explains the dashes), read-out: not inhibited by (isoniazid per ml. medium)): > 128 µg/mL
MIC (Neisseria perflava; N. perflava strains, Table 1 footnote 1 (explains the dashes), read-out: not inhibited by (isoniazid per ml. medium)): > 128 µg/mL
MIC (Bacillus subtilis; B. subtilis strains, Table 1 footnote 1 (explains the dashes), read-out: not inhibited by (isoniazid per ml. medium)): > 128 µg/mL
MIC (Bacillus subtilis; [1]): 128 µg/mL (≈ 933 µM)
MIC (M. rhodochrus): 64 µg/mL (≈ 467 µM)
MIC (Mycobacterium phlei; NRRLB609, NRRL B-609): 4 µg/mL (≈ 29.2 µM)
MIC (Mycobacterium phlei; NRRLB610, NRRL B-610): 4 µg/mL (≈ 29.2 µM)
MIC (Mycobacterium phlei; NRRLB4051, NRRL B-4051): 4 µg/mL (≈ 29.2 µM)
Molecule: NNC(=O)c1ccncc1 [Isoniazid]
